Measurements: patent US20250034139A1, “AMINE COMPOUNDS HAVING ANTI-INFLAMMATORY, ANTIFUNGAL, ANTIPARASITIC, AND ANTICANCER ACTIVITY” (PHARMA CINQ, LLC, priority 2013, published 2025)
In brackets after ≈: the same amount, converted by molar mass. Several values for one entry are separate records, joined by “and”; a condition that tells them apart may be missing. Identical values can stand only once. Counter-ions that a name gives are not always drawn. Like-named read-outs stand apart in the source and are kept apart here.

How the values were obtained:
[1] = system: Candida albicans strain 3153; test: Example H: Candida albicans growth inhibition (OD 600 nm); format: cell-based; details: for MIC: Candida albicans, 3153, 24 hrs at 30° C., YPD, XLfit, read-out: MIC (uM) (99% of inhibition of fungal growth); for IC50: Candida albicans, 3153, read-out: IC50 (uM) (50% inhibition of fungal growth), 24 hrs at 30° C., YPD, XLfit
In short: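 Growth inhibition computed as % versus DMSO control from OD600 after ~24 h at 30° C. Inoculum: washed overnight YPD culture of strain 3153 at 3.5×10^4 CFU/ml in YPD; final compound concentrations 0, 5, 10, 16, 22, 30, 40 μM, duplicate wells.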

[2] = system: Cryptococcus neoformans (serotype D); test: Example K: Cryptococcus neoformans (serotype D) growth inhibition; format: cell-based; details: Cryptococcus deneoformans; for IC50: read-out: IC50 (concentration for 50% of inhibition); for MIC: read-out: MIC (concentration for maximum-99% of inhibition)
THP-1 cells = test: Example D: LPS-triggered THP-1 cell death assay, acute/5-hour and chronic/48-hour; format: cell-based, Human; details: for Viable cell percent change, Chronic/48-hour, Mean: 10 ng/ml LPS, 0.1 μM test compound; for activity relative to AC in the LPS-triggered THP-1 cell death assay, in words: 0.1 μM, 5-hour and 48-hour time points
Protocol: Compounds of the invention were tested at 0.1 μM versus AC in the LPS-triggered THP-1 cell death assay. Both acute/5-hour and chronic/48-hour phases of cell death were assessed. Compounds were screened in batches with DMSO as the negative control and AC as the high activity control.

S. cerevisiae = test: Example I: Saccharomyces cerevisiae growth inhibition (OD 600 nm); format: cell-based; details: Saccharomyces cerevisiae, 18 hour incubation at 30° C., OD 600 nm, XLfit; for IC50: read-out: IC50, uM (50% inhibition of fungal growth); for MIC: read-out: MIC, uM (99% of inhibition of fungal growth)
[3] = OD of 48 hour reading, 37° C., tested 4 to 60 μM, XLfit

Structure (SMILES) | MIC [1] [µM] | IC50 [1] [µM] | IC50 [2, 3] [µM] | MIC [2, 3] [µM] | IC50 (S. cerevisiae) [µM] | MIC (S. cerevisiae) [µM] | Viable cell percent change, Chronic/48-hour, Mean (THP-1 cells) [%] | activity relative to AC in the LPS-triggered THP-1 cell death assay, in words (THP-1 cells) | Viable cell percent change, Chronic/48-hour, Mean (THP-1 cells; 0.1 µM) | IC50 ([2]; 48 h) [µM]
c1ccc(Oc2cccc(CNc3ccnc4ccccc34)c2)cc1 [AF, N-(3-Phenoxybenzyl)quinolin-4-amine] | 74.2 (≈ 24.2 µg/mL) | 45.5 | 5.18 | 55.9 (≈ 18.2 µg/mL) | – | – | 13.79 | more active than AC at the chronic/48-hour time point | – | –
CCCCOCCCCCCCCCCNc1ccnc2ccccc12 [AM, N-(10-Butoxydecyl)quinolin-4-amine] | 16.2 (≈ 5.77 µg/mL) | 6.52 | 3.32 | 13.3 (≈ 4.75 µg/mL) | 13.4 | 18.9 (≈ 6.73 µg/mL) | – | more active than AC at the chronic/48-hour time point | – | –
CCCCOCCCCCCCCCCn1cnc2cnccc21 [AT, 1-(10-Butoxydecyl)-1H-imidazo[4,5-c]pyridine] | 51.2 (≈ 17 µg/mL) | 14.5 | 1.29 | 41.8 (≈ 13.9 µg/mL) | – | – | 30.34 | – | – | –
Cc1cccc(OCCCCCCCCNc2ccnc3ccccc23)c1 [BE, N-[8-(m-Tolyloxy)octyl]quinolin-4-amine] | 29.7 (≈ 10.8 µg/mL) | 12.2 | 3.45 | 13.2 (≈ 4.77 µg/mL) | 19.2 | 24.1 (≈ 8.75 µg/mL) | 33.86 | – | – | –
Cc1ccc(OCCCCCCCCNc2ccnc3ccccc23)cc1 [BF, N-[8-(p-Tolyloxy)octyl]quinolin-4-amine] | 26.9 (≈ 9.77 µg/mL) | 14.2 | – | – | 20.8 | 32 (≈ 11.6 µg/mL) | 31.64 | – | – | –
Fc1ccc(OCCCCCCCCNc2ccnc3ccccc23)cc1 [BJ, N-[8-(4-Fluorophenoxy)octyl]quinolin-4-amine] | 23.5 (≈ 8.6 µg/mL) | 13.3 | 1.86 | 18.5 (≈ 6.79 µg/mL) | 21.4 | 37.8 (≈ 13.9 µg/mL) | 18.03 | – | – | –
CCCCCCOc1cccc(CNc2ccnc3ccccc23)c1 [Compound AC, N-[3-(Hexyloxy)benzyl]quinolin-4-amine] | 108 (≈ 36 µg/mL) | 45.7 | – | 19.4 (≈ 6.49 µg/mL) | 27.7 | 47.7 (≈ 15.9 µg/mL) | – | – | – | 3.35
CCCCCCCCCCNc1ccnc2ccccc12 [Compound AG, N-(Decyl)quinolin-4-amine] | 16 (≈ 4.55 µg/mL) | 8.92 | 1.78 | 17.6 (≈ 4.99 µg/mL) | 19.4 | 24.4 (≈ 6.93 µg/mL) | – | more active than AC at the chronic/48-hour time point | – | –
CCCCCCCCCCNc1ncnc2ccccc12 [Compound AH, N-(Decyl)quinazolin-4-amine] | 15.4 (≈ 4.4 µg/mL) | 5.24 | 0.76 | 9.54 (≈ 2.72 µg/mL) | – | – | – | more active than AC at the chronic/48-hour time point | – | –
CCCCCCOCCCCCCCCCCNc1ccnc2ccccc12 [Compound AL, N-[10-(Hexyloxy)decyl]quinolin-4-amine] | 20.1 (≈ 7.72 µg/mL) | 7.08 | 1.88 | 11.5 (≈ 4.44 µg/mL) | 9.67 | 10.5 (≈ 4.03 µg/mL) | 19.14 | equivalent activity to AC at both the 5-hour and 48-hour time points | – | –
CCCCCCOCCCCCCCCNc1ccnc2c(Cl)cccc12 [Compound AX, 8-Chloro-N-[8-(hexyloxy)octyl]quinolin-4-amine] | 26.6 (≈ 10.4 µg/mL) | 11.2 | 1.06 | 10.6 (≈ 4.13 µg/mL) | 19.6 | 19.9 (≈ 7.79 µg/mL) | 18.20 | – | – | –

More lines, main results first:

MIC [1] [µM] | IC50 [1] [µM] | IC50 [2, 3] [µM] | MIC [2, 3] [µM] | IC50 (S. cerevisiae) [µM] | MIC (S. cerevisiae) [µM] | Structure (SMILES) | Viable cell percent change, Chronic/48-hour, Mean (THP-1 cells) [%] | activity relative to AC in the LPS-triggered THP-1 cell death assay, in words (THP-1 cells) | Viable cell percent change, Chronic/48-hour, Mean (THP-1 cells; 0.1 µM) | IC50 ([2]; 48 h) [µM]
27.3 (≈ 9.13 µg/mL) | 11 | 3.34 | 40.5 (≈ 13.6 µg/mL) | – | – | CCCCCCOc1ccc(CNc2ccnc3ccccc23)cc1 [AA, N-[4-(Hexyloxy)benzyl]quinolin-4-amine] | – | – | – | –
– | 7.82 | 0.53 | 6.99 (≈ 2.65 µg/mL) | – | – | COc1ccc(OCCCCCCCCNc2ncnc3ccccc23)cc1 [AE, N-[8-(4-Methoxyphenoxy)octyl]quinazolin-4-amine] | 4.11 | equivalent activity to AC at both the 5-hour and 48-hour time points | – | –
– | 10.7 | 0.85 | 24.6 (≈ 8.26 µg/mL) | 23.5 | – | CCCCCCOc1cccc(CNc2ncnc3ccccc23)c1 [AK, N-[3-(Hexyloxy)benzyl]quinazolin-4-amine] | – | equivalent activity to AC at both the 5-hour and 48-hour time points | – | –
37.8 (≈ 12.5 µg/mL) | 15.3 | 1.46 | 26.8 (≈ 8.89 µg/mL) | 38.5 | 48.9 (≈ 16.2 µg/mL) | CCCCCCOCCCCCCCCn1cnc2cnccc21 [AS, 1-[8-(Hexyloxy)octyl]-1H-imidazo[4,5-c]pyridine] | 3.86 | – | – | –
30.9 (≈ 9.52 µg/mL) | 16.3 | 1.63 | 14.4 (≈ 4.42 µg/mL) | 18 | 24.3 (≈ 7.46 µg/mL) | CCCCCCOCCCCCCCCNc1ccncn1 [AU, N-[8-(Hexyloxy)octyl]pyrimidin-4-amine] | 16.86 | – | – | –
19.8 (≈ 7.34 µg/mL) | 13.4 | 5.12 | 22.9 (≈ 8.47 µg/mL) | 19.7 | 19.8 (≈ 7.32 µg/mL) | CCCCCCOCCCCCCCCNc1cc(C)nc2ccccc12 [AV, N-[8-(Hexyloxy)octyl]-2-methylquinolin-4-amine] | 38.76 | – | – | –
24.8 (≈ 9.7 µg/mL) | 13.3 | 0.9 | 8.73 (≈ 3.41 µg/mL) | 9.73 | 10.2 (≈ 4 µg/mL) | CCCCCCOCCCCCCCCNc1ccnc2cc(Cl)ccc12 [AW, 7-Chloro-N-[8-(hexyloxy)octyl]quinolin-4-amine] | – | – | – | –
21.1 (≈ 7.99 µg/mL) | 10.4 | 2.01 | 15.8 (≈ 5.99 µg/mL) | 18.6 | 24.1 (≈ 9.11 µg/mL) | CCCCCCOc1cccc(OCCCNc2ccnc3ccccc23)c1 [AZ, N-{3-[3-(Hexyloxy)phenoxy]propyl}quinolin-4-amine] | 50.12 | – | – | –
20.9 (≈ 7.56 µg/mL) | 11.5 | 2.13 | 12.5 (≈ 4.55 µg/mL) | 9.88 | 11.8 (≈ 4.29 µg/mL) | Cc1ccccc1OCCCCCCCCNc1ccnc2ccccc12 [BG, N-[8-(o-Tolyloxy)octyl]quinolin-4-amine] | – | – | 38.39% and 31.07% | –
27.8 (≈ 10.2 µg/mL) | 17.5 | 2.23 | 19.6 (≈ 7.17 µg/mL) | 28.6 | 47.1 (≈ 17.3 µg/mL) | Fc1cccc(OCCCCCCCCNc2ccnc3ccccc23)c1 [BI, N-[8-(3-Fluorophenoxy)octyl]quinolin-4-amine] | 27.30 | – | – | –
19 (≈ 6.71 µg/mL) | 11.2 | 2.44 | 16.5 (≈ 5.82 µg/mL) | 21.4 | 29.4 (≈ 10.4 µg/mL) | CCCCCCOc1ccc(CNc2ccnc3ccccc23)cc1F [BK, N-[3-Fluoro-4-(hexyloxy)benzyl]quinolin-4-amine] | 43.69 | equivalent activity to AC at both the 5-hour and 48-hour time points | – | –
44.5 (≈ 14.6 µg/mL) | 20.2 | 0.72 | 22.6 (≈ 7.38 µg/mL) | 30.6 | 50.5 (≈ 16.5 µg/mL) | c1ccc(Oc2cccc(CNc3ncnc4ccccc34)c2)cc1 [BM, N-(3-Phenoxybenzyl)quinazolin-4-amine] | 29.97 | more active than AC at the chronic/48-hour time point | – | –
42.5 | 19 | 2 | 13.4 | – | – | CCCCCCOCCCCCCCC[n+]1ccc(N)cc1 [BO, 4-Amino-1-[8-(hexyloxy)octyl]pyridinium salts] | 28.35 | – | – | –
